# Assay results taken from PubChem BioAssay AID1259407 (Chemical Carcinogenesis Research Information System (CCRIS), 2018).
# Active and inactive are the calls of the source. How the calls were made is not given here.
# Tested on: CCRIS mutagenicity, Ames/micronucleus/aberration tests
# Experiment: CCRIS mutagenicity studies
# [1] = Test System: AMES SALMONELLA TYPHIMURIUM, Strain/Indicator: TA98, Metabolic Activation: NONE, Method: PREINCUBATION
# [2] = Test System: AMES SALMONELLA TYPHIMURIUM, Strain/Indicator: TA98, Metabolic Activation: NONE, Method: STANDARD PLATE
# [3] = Test System: AMES SALMONELLA TYPHIMURIUM, Strain/Indicator: TA100, Metabolic Activation: NONE, Method: PREINCUBATION
# [4] = Test System: AMES SALMONELLA TYPHIMURIUM, Strain/Indicator: TA100, Metabolic Activation: NONE, Method: STANDARD PLATE
compound,measurement,setting,value
[Cl][Fe]([Cl])[Cl],mutagenic call,"Test System: AMES SALMONELLA TYPHIMURIUM, Strain/Indicator: TA98, Metabolic Activation: HAMSTER, LIVER, S-9, AROCLOR 1254, Method: STANDARD PLATE",inactive; negative
same,mutagenic call,[1],inactive; negative
same,mutagenic call,[2],inactive; negative
same,mutagenic call,"Test System: AMES SALMONELLA TYPHIMURIUM, Strain/Indicator: TA98, Metabolic Activation: RAT, LIVER, S-9, AROCLOR 1254, Method: STANDARD PLATE",inactive; negative
same,mutagenic call,"Test System: AMES SALMONELLA TYPHIMURIUM, Strain/Indicator: TA98, Metabolic Activation: RAT, LIVER, S-9, KC 500, Method: PREINCUBATION",inactive; negative
same,mutagenic call,"Test System: AMES SALMONELLA TYPHIMURIUM, Strain/Indicator: TA100, Metabolic Activation: HAMSTER, LIVER, S-9, AROCLOR 1254, Method: STANDARD PLATE",inactive; negative
same,mutagenic call,[3],inactive; negative
same,mutagenic call,[4],inactive; negative
same,mutagenic call,"Test System: AMES SALMONELLA TYPHIMURIUM, Strain/Indicator: TA100, Metabolic Activation: RAT, LIVER, S-9, AROCLOR 1254, Method: STANDARD PLATE",inactive; negative
same,mutagenic call,"Test System: AMES SALMONELLA TYPHIMURIUM, Strain/Indicator: TA100, Metabolic Activation: RAT, LIVER, S-9, KC 500, Method: PREINCUBATION",inactive; negative
same,mutagenic call,"Test System: AMES SALMONELLA TYPHIMURIUM, Strain/Indicator: TA1535, Metabolic Activation: HAMSTER, LIVER, S-9, AROCLOR 1254, Method: STANDARD PLATE",inactive; negative
same,mutagenic call,"Test System: AMES SALMONELLA TYPHIMURIUM, Strain/Indicator: TA1535, Metabolic Activation: NONE, Method: PREINCUBATION",inactive; negative
same,mutagenic call,"Test System: AMES SALMONELLA TYPHIMURIUM, Strain/Indicator: TA1535, Metabolic Activation: NONE, Method: STANDARD PLATE",inactive; negative
same,mutagenic call,"Test System: AMES SALMONELLA TYPHIMURIUM, Strain/Indicator: TA1535, Metabolic Activation: RAT, LIVER, S-9, AROCLOR 1254, Method: STANDARD PLATE",inactive; negative
same,mutagenic call,"Test System: AMES SALMONELLA TYPHIMURIUM, Strain/Indicator: TA1535, Metabolic Activation: RAT, LIVER, S-9, KC 500, Method: PREINCUBATION",inactive; negative
same,mutagenic call,"Test System: AMES SALMONELLA TYPHIMURIUM, Strain/Indicator: TA1537, Metabolic Activation: HAMSTER, LIVER, S-9, AROCLOR 1254, Method: STANDARD PLATE",inactive; negative
same,mutagenic call,"Test System: AMES SALMONELLA TYPHIMURIUM, Strain/Indicator: TA1537, Metabolic Activation: NONE, Method: PREINCUBATION",inactive; negative
same,mutagenic call,"Test System: AMES SALMONELLA TYPHIMURIUM, Strain/Indicator: TA1537, Metabolic Activation: NONE, Method: STANDARD PLATE",inactive; negative
same,mutagenic call,"Test System: AMES SALMONELLA TYPHIMURIUM, Strain/Indicator: TA1537, Metabolic Activation: RAT, LIVER, S-9, AROCLOR 1254, Method: STANDARD PLATE",inactive; negative
same,mutagenic call,"Test System: AMES SALMONELLA TYPHIMURIUM, Strain/Indicator: TA1537, Metabolic Activation: RAT, LIVER, S-9, KC 500, Method: PREINCUBATION",inactive; negative
same,mutagenic call,"Test System: AMES SALMONELLA TYPHIMURIUM, Strain/Indicator: TA1538, Metabolic Activation: HAMSTER, LIVER, S-9, AROCLOR 1254, Method: STANDARD PLATE",inactive; negative
same,mutagenic call,"Test System: AMES SALMONELLA TYPHIMURIUM, Strain/Indicator: TA1538, Metabolic Activation: NONE, Method: PREINCUBATION",inactive; negative
same,mutagenic call,"Test System: AMES SALMONELLA TYPHIMURIUM, Strain/Indicator: TA1538, Metabolic Activation: NONE, Method: STANDARD PLATE",inactive; negative
same,mutagenic call,"Test System: AMES SALMONELLA TYPHIMURIUM, Strain/Indicator: TA1538, Metabolic Activation: RAT, LIVER, S-9, AROCLOR 1254, Method: STANDARD PLATE",inactive; negative
same,mutagenic call,"Test System: AMES SALMONELLA TYPHIMURIUM, Strain/Indicator: TA1538, Metabolic Activation: RAT, LIVER, S-9, KC 500, Method: PREINCUBATION",inactive; negative
same,mutagenic call,"Test System: E. COLI, Strain/Indicator: WP2 UVRA, Metabolic Activation: NONE, Method: PREINCUBATION",inactive; negative
same,mutagenic call,"Test System: E. COLI, Strain/Indicator: WP2 UVRA, Metabolic Activation: RAT, LIVER, S-9, KC 500, Method: PREINCUBATION",inactive; negative
same,mutagenic call,"Test System: MOUSE LYMPHOMA, Strain/Indicator: L5178Y (TK+/TK-), Metabolic Activation: NONE, Method: SUSPENSION/PLATE",inactive; negative
same,mutagenic call,"Test System: MOUSE LYMPHOMA, Strain/Indicator: L5178Y (TK+/TK-), Metabolic Activation: RAT, LIVER, S-9, AROCLOR 1254, Method: SUSPENSION/PLATE",active; positive
O=[N+]([O-])c1ccc(Cl)c(Cl)c1,mutagenic call,"End Point: IN VITRO CHROMOSOMAL ABERRATIONS, Test System: HUMAN PERIPHERAL LYMPHOCYTES, Metabolic Activation: NONE",inactive; negative
same,mutagenic call,"End Point: In vitro chromosomal aberrations, Test System: Chinese hamster lung (CHL/IU) cells, Metabolic Activation: Rat, Liver, S9, Phenobarbital and 5,6-benzoflavone",active; positive (structural changes). precipitation observed in culture medium at 0.16
same,mutagenic call,[1],inactive; negative
same,mutagenic call,[2],inactive; negative
same,mutagenic call,"Test System: AMES SALMONELLA TYPHIMURIUM, Strain/Indicator: TA98, Metabolic Activation: RAT LIVER S-9, AROCLOR 1254 (10%), Method: STANDARD PLATE",inactive; negative
same,mutagenic call,"Test System: AMES SALMONELLA TYPHIMURIUM, Strain/Indicator: TA98, Metabolic Activation: RAT, LIVER, S-9, KANECHLOR 500, Method: PREINCUBATION",inactive; negative
same,mutagenic call,[3],active; positive
same,mutagenic call,[4],inactive; negative
same,mutagenic call,"Test System: AMES SALMONELLA TYPHIMURIUM, Strain/Indicator: TA100, Metabolic Activation: RAT, LIVER, S-9, KANECHLOR 500, Method: PREINCUBATION",active; positive
same,mutagenic call,"Test System: Ames Salmonella typhimurium, Strain/Indicator: TA98, Metabolic Activation: None, Method: Preincubaton",inactive; negative
same,mutagenic call,"Test System: Ames Salmonella typhimurium, Strain/Indicator: TA98, Metabolic Activation: Rat, Liver, S9, Sodium phenobarbital and 5,6-benzoflavone (10%), Method: Preincubaton",inactive; negative
same,mutagenic call,"Test System: Ames Salmonella typhimurium, Strain/Indicator: TA100, Metabolic Activation: None, Method: Preincubaton",active; positive
same,mutagenic call,"Test System: Ames Salmonella typhimurium, Strain/Indicator: TA100, Metabolic Activation: Rat, Liver, S9, Sodium phenobarbital and 5,6-benzoflavone (10%), Method: Preincubaton",active; positive
same,mutagenic call,"Test System: Ames Salmonella typhimurium, Strain/Indicator: TA1535, Metabolic Activation: None, Method: Preincubaton",inactive; negative
same,mutagenic call,"Test System: Ames Salmonella typhimurium, Strain/Indicator: TA1535, Metabolic Activation: Rat, Liver, S9, Sodium phenobarbital and 5,6-benzoflavone (10%), Method: Preincubaton",inactive; negative
same,mutagenic call,"Test System: Ames Salmonella typhimurium, Strain/Indicator: TA1537, Metabolic Activation: None, Method: Preincubaton",inactive; negative
same,mutagenic call,"Test System: Ames Salmonella typhimurium, Strain/Indicator: TA1537, Metabolic Activation: Rat, Liver, S9, Sodium phenobarbital and 5,6-benzoflavone (10%), Method: Preincubaton",inactive; negative
same,mutagenic call,"Test System: E. coli, Strain/Indicator: WP2uvrA/pKM101, Metabolic Activation: None, Method: Preincubaton",inactive; negative
same,mutagenic call,"Test System: E. coli, Strain/Indicator: WP2uvrA/pKM101, Metabolic Activation: Rat, Liver, S9, Sodium phenobarbital and 5,6-benzoflavone (10%), Method: Preincubaton",inactive; negative
O=[N+]([O-])c1ccc2c(c1)CCc1cc([N+](=O)[O-])ccc1-2,mutagenic call,"Test System: AMES SALMONELLA TYPHIMURIUM, Strain/Indicator: TA98(1,8-DNP6), Metabolic Activation: NONE, Method: STANDARD PLATE",active; positive
same,mutagenic call,"Test System: AMES SALMONELLA TYPHIMURIUM, Strain/Indicator: TA98(NR), Metabolic Activation: NONE, Method: STANDARD PLATE",active; positive
same,mutagenic call,[2],active; positive
Cc1cccs1,mutagenic call,[1],inactive; negative
same,mutagenic call,"Test System: AMES SALMONELLA TYPHIMURIUM, Strain/Indicator: TA98, Metabolic Activation: RAT, LIVER, S-9, AROCLOR 1254, Method: PREINCUBATION",inactive; negative
same,mutagenic call,[3],inactive; negative
same,mutagenic call,"Test System: AMES SALMONELLA TYPHIMURIUM, Strain/Indicator: TA100, Metabolic Activation: RAT, LIVER, S-9, AROCLOR 1254, Method: PREINCUBATION",inactive; negative
same,mutagenic call,"Test System: AMES SALMONELLA TYPHIMURIUM, Strain/Indicator: TA102, Metabolic Activation: NONE, Method: PREINCUBATION",inactive; negative
same,mutagenic call,"Test System: AMES SALMONELLA TYPHIMURIUM, Strain/Indicator: TA102, Metabolic Activation: RAT, LIVER, S-9, AROCLOR 1254, Method: PREINCUBATION",inactive; negative
Cc1cc(Cc2ccc(N)c(C)c2)ccc1N,mutagenic call,[1],inactive; negative
same,mutagenic call,"Test System: AMES SALMONELLA TYPHIMURIUM, Strain/Indicator: TA98, Metabolic Activation: RAT, LIVER, S-9, PCB, Method: PREINCUBATION",inactive; negative
same,mutagenic call,[3],inactive; negative
same,mutagenic call,"Test System: AMES SALMONELLA TYPHIMURIUM, Strain/Indicator: TA100, Metabolic Activation: RAT, LIVER, S-9, PCB, Method: PREINCUBATION",inactive; negative
CC(O)c1ccc2ccc3cccc4ccc1c2c34 (configuration not stated),mutagenic call,"Test System: AMES SALMONELLA TYPHIMURIUM, Strain/Indicator: TA98, Metabolic Activation: HUMAN, LIVER, CYTOSOL, PAPS, Method: PREINCUBATION",active; positive
